{
  "source": "patent US20060182726A1",
  "about": "“Immunomodulating compositions, processes for their production and uses therefor” (The University of Queensland, priority 2002, published 2006)",
  "key": {"RelB [1]": {"system": "RelB", "test": "RelB DNA binding ELISA on nuclear extracts of monocyte-derived DC", "format": "cell-based", "conditions": "human PB monocytes 48 h with GM-CSF and IL-4, 8 μM BAY 11-7082", "protocol": "FIG. 7 is a graphical representation showing that nuclear extracts from BAY-treated monocyte-derived DC (MDDC) lack RelB-DNA binding and are unresponsive to LPS. MDDC were generated for 48 h from PB monocytes in the presence of GM-CSF and IL-4 in the presence (BAY DC) or absence (control DC) of 8 μM BAY, then stimulated with 1 μg/mL LPS for 24 hr. Nuclear extracts were prepared and analysed for NFkB DNA binding by ELISA.\nHuman PB monocytes were purified from PBMC by immunomagnetic selection using anti-CD14. They were incubated for 48 h in the presence of 800 U/mL each GM-CSF and IL-4 in RPMI and 10% FCS in the presence or absence of 8 μM BAY 11-7082. Nuclear extracts were prepared and RelB DNA binding was assessed using ELISA, as previously described (O'Sullivan and Thomas, 2002). […]\np50 and RelB DNA binding was detected by ELISA using a Mercury Transfactor p50 Kit (Clontech, Calif.). 10 μg of nuclear extract were bound to wells coated with NF-κB consensus oligonucleotide then incubated with either anti-RelB (sc-226) or anti-p50 (sc-7178), followed by anti-rabbit […] Ig (Silenus) and then detected by measuring color development of TMB at 650 nm using a Multiskan plate reader (Labsystems) (O'Sullivan and Thomas, 2002)."}, "NF-κB": {"system": "NF-κB", "conditions": "Pierce et al., 1997; cited from earlier work"}, "NF-κB subunits": {"system": "NF-κB subunits", "test": "Immunoblot of nuclear and cytoplasmic extracts of BMDCs for NF-κB subunits", "format": "cell-based", "conditions": "murine BM precursors 6 days with GM-CSF and IL-4 in the presence of BAY", "protocol": "To independently assess the relationship between RelB nuclear translocation and tolerance induction, BMDCs were generated in the presence or absence of the compound BAY 11-7082 (BAY). […] Murine BM precursors were incubated for 6 days with GM-CSF and IL-4 to produce BMDCs, in the presence or absence of BAY. All NF-κB subunits were demonstrable in BMDCs generated in the absence of BAY, and were present in both nuclear and cytoplasmic extracts (FIG. 2a). […] However, CD86 was expressed at higher levels in BAY-treated DCs than RelB-deficient DCs. […]\nNuclear and cytoplasmic extracts were prepared as previously described (Pettit et al., 1997) and protein estimations carried out using a Protein Assay kit (Bio-Rad, Hercules, Calif.). […] Following transfer to nitrocellulose (Amersham. Sussex, England), membranes were immunoblotted with either anti-RelB (sc-226), anti-p50 (sc-7178), anti-c-Rel, anti-RelA, or anti-p52 antibodies (all from Santa Cruz Biotechnology) followed by sheep anti-rabbit HRP-conjugated Ig (Silenus, Hawthorn, Australia) and then detected by enhanced chemiluminescence (ECL, Life Technologies, MO, USA) according to the manufacturer's instructions (Amersham)."}, "[2]": {"system": "human monocyte-derived DC", "test": "Phenotype of human monocyte-derived DC by flow cytometry", "format": "cell-based", "conditions": "human monocytes 48 hours, GM-CSF, IL-4; 10 κM BAY11-7082 or 2.5 or 10 μM PSI; relative to immature DC", "protocol": "FIG. 8 is a graphical representation showing that modified human DC lack CD40 compared to immature DC. MDDC were generated for 48 h from PB monocytes in the presence of GM-CSF and IL-4 in the presence (modified DC) or absence (immature DC) of BAY, then stained for various cell surface markers and analysed by flow cytometry.\nFIG. 9 is a graphical representation showing that modified human DC are unresponsive to CD40L. MDDC were generated for 48 h from PB monocytes in the presence of GM-CSF and IL-4 in the presence (modified DC) or absence (immature DC) of BAY, washed then incubated with or without 50 ng/ml soluble CD40L. Cells were then stained for CD86 and HLA-DR and analysed by flow cytometry.\nFIG. 22 is a graphical representation showing the phenotype of NF-κB^− dendritic cells is reproducible with different NF-κB inhibitors. Dendritic cells were generated from human monocytes for 48 hours in the presence of GM-CSF, IL-4 and in the presence or absence of either 10 μM BAY11-7082 or 2.5 or 10 μM PSI (N-benzyloxycarbonyl-Ile-Glu(O-tert-butyl)-Ala-leucinal). Cells were then stained with anti-CD40, anti-CD86, anti-HLA-DR and anti-MHC class I mAb (green lines) and compared with isotype control staining (purple) by flow cytometry.\nHuman PB monocytes were purified from PBMC by immunomagnetic selection using anti-CD14. They were incubated for 48 h in the presence of 800 U/mL each GM-CSF and IL-4 in RPMI and 10% FCS in the presence or absence of 8 μM BAY 11-7082. Nuclear extracts were prepared and RelB DNA binding was assessed using ELISA, as previously described (O'Sullivan and Thomas, 2002). […] In keeping with the lack of CD40 expression, modified DC were unresponsive to 24 h incubation with 500 ng/mL soluble CD40 ligand trimer (sCD40L, Immunex, Seattle Wash.).\nThe present inventors examined whether the phenotype of the described dendritic cells that are capable of inducing tolerance when transferred in vivo, is reproducible when dendritic cells are generated with various NT-κB^− inhibitors. Dendritic cells were generated from human monocles for 48 hours in the presence of GM-CSF, IL-4 and in the presence or absence of either 10 […] of the IκB phosphorylation inhibitor BAY11-7082 or 2.5 or 10 μM of the proteasome inhibitor PSI (N-benzyloxycarbonyl-Ile-Glu(O-tert-butyl)-Ala-leucinal)."}, "BMDCs": {"system": "BMDCs", "test": "Cell surface marker expression, yield and viability of murine BMDCs generated with BAY (flow cytometry)", "format": "cell-based", "protocol": "To independently assess the relationship between RelB nuclear translocation and tolerance induction, BMDCs were generated in the presence or absence of the compound BAY 11-7082 (BAY). […] Murine BM precursors were incubated for 6 days with GM-CSF and IL-4 to produce BMDCs, in the presence or absence of BAY. All NF-κB subunits were demonstrable in BMDCs generated in the absence of BAY, and were present in both nuclear and cytoplasmic extracts (FIG. 2a). […] However, CD86 was expressed at higher levels in BAY-treated DCs than RelB-deficient DCs. […] The ability of adoptively-transferred BAY-treated DCs to prime an mBSA-specific T cell proliferative response in naïve syngeneic mice when pulsed with the antigen mBSA was reduced, compared with mBSA-pulsed untreated BMDCs, or immunisation with mBSA and CFA (FIG. 2c).\nAccording to the inventors' experience, every new batch of BAY needs to be titrated. The final concentration for mouse BMDC cultures may range between 2 and 15 μM. Since tolerance induction correlates precisely with CD40 expression by the DC, varying concentrations of BAY are added to BM DC cultures. At day 6-8, yield is check and viability test using PI and CD40 expression by FACS. […]\nBMDCs were incubated for 30 min on ice with anti-CD86-FITC (GL1, PharMingen, San Diego, Calif.), anti-CD11c-PE (HL3, PharMingen), anti-CD11b-PE (M1/70, PharMingen), F4/80-PE (Serotec, Raleigh, N.C.), CD8α-PE (53-6.7, PharMingen), CD3-PE (17A2, PharMingen), or with anti-CD40 (3/23, PharMingen), anti-CD19 (1D3, American Type Culture Collection, ATCC), anti-Ly6-g and c (Gr1, RB6-BC5), anti-CD45R (B220, RA3-6B2, each a gift from G. Hill, Queensland Institute for Medical Research, Brisbane, Q1d), anti-MHC class I and anti-MHC class II (2G9, PharMingen), followed by biotinylated rabbit anti-rat Ig (DAKO, CA) and then streptavidin-FITC (DAKO). After washing, cells were analyzed using a FACScalibur (Becton Dickinson, San Jose, Calif.). Intracellular cytokine production was measured in lymphocytes by flow cytometric staining as described, with minor modifications (Sander et al., 1991). […]"}, "RelB [3]": {"system": "RelB", "conditions": "LPS-treated monocyte-derived dendritic cells; cited from earlier work"}, "[4]": {"conditions": "murine BMDCs generated in the presence of BAY"}},
  "note": "Where a SMILES comes first, the peptide text is derived from it. The star is where a group is joined. Cbz = O=C(OCc1ccccc1)*; OtBu = CC(C)(C)O*",
  "data": [
    {"molecule": "Cc1ccc(S(=O)(=O)/C=C/C#N)cc1", "note": "[BAY 11-7082]", "values": [
      {"measurement": "RelB nuclear DNA binding activity", "setting": "RelB [1]", "result": "lacked RelB nuclear DNA binding activity"},
      {"measurement": "TNF-α-stimulated NF-κB translocation", "setting": "NF-κB", "result": "block TNF-α-stimulated NF-κB translocation through inhibition of IκB phosphorylation"},
      {"measurement": "NFκB subunit immunoreactivity in nuclear and cytoplasmic extracts", "setting": "NF-κB subunits", "result": "in the cytoplasm but not the nucleus"},
      {"measurement": "CD40 expression", "setting": "[2]", "result": "CD40 expression was suppressed"},
      {"measurement": "CD86 and MHC class I expression", "setting": "[2]", "result": "CD86 and MHC class I expression were not changed"},
      {"measurement": "HLA-DR expression", "setting": "[2]", "result": "HLA-DR was reduced"},
      {"measurement": "toxicity: yield and viability of BM DC cultures", "setting": "BMDCs; concentrations higher than the minimum that suppresses CD40", "result": "more toxic and affect yield and viability"},
      {"measurement": "MHC class I and class II expression", "setting": "BMDCs; [4]", "result": "expressed reduced levels of MHC class I and class II"},
      {"measurement": "cell surface CD40 expression", "setting": "BMDCs; [4]", "result": "lacked cell surface CD40 expression"}
    ]},
    {"molecule": "CC[C@H](C)[C@H](NC(=O)OCc1ccccc1)C(=O)N[C@@H](CCC(=O)OC(C)(C)C)C(=O)N[C@@H](C)C(=O)N[C@H](C=O)CC(C)C", "note": "[PSI, N-benzyloxycarbonyl-Ile-Glu(O-tert-butyl)-Ala-leucinal] (Cbz-IE(OtBu)AL-aldehyde)", "values": [
      {"measurement": "CD40 expression", "setting": "[2]", "result": "CD40 expression was suppressed"},
      {"measurement": "CD86 and MHC class I expression", "setting": "[2]", "result": "CD86 and MHC class I expression were not changed"},
      {"measurement": "HLA-DR expression", "setting": "[2]", "result": "HLA-DR was reduced"}
    ]},
    {"molecule": "C[S+]([O-])c1ccc(-c2nc(-c3ccncc3)c(-c3ccc(F)cc3)[nH]2)cc1", "note": "(stereo not shown) [SB203580]", "values": [
      {"measurement": "nuclear RelB translocation", "setting": "RelB [3]", "result": "blocks nuclear RelB translocation"}
    ]}
  ]
}
